Measurements published in publication PMC12280925, “Structure-based discovery of positive allosteric modulators of the A1 adenosine receptor” (Proceedings of the National Academy of Sciences of the …, 2025).
Where a chain is given by its changes, count along the chain named. pEC50, pKd: −log10 of the molar value. Like-named read-outs stand apart in the source and are kept apart here.

How the values were obtained:
M2 receptor (M2R) = target: T1, M2 receptor (M2R) (Homo sapiens, UniProt P08172); assay: cAMP accumulation in M2 receptor FlpINCHO cells (selectivity); format: cell-based; settings: acetylcholine as agonist
T1 sequence (P08172 1-466): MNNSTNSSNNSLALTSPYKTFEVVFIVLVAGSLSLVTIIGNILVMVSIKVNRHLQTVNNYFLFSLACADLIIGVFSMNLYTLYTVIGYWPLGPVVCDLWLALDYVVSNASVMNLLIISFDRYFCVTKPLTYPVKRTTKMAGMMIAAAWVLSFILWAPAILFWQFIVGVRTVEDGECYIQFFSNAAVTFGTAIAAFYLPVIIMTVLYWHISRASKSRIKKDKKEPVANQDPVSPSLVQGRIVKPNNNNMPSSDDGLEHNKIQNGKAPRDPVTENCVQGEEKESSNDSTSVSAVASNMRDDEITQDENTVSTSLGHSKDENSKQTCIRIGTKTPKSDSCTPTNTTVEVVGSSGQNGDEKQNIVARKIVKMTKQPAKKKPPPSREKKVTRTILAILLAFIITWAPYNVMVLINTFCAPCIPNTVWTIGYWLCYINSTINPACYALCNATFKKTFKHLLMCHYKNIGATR

A1R (A1R-FlpInCHO cells) [1] = target: T2, A1R (A1R-FlpInCHO cells) (Homo sapiens, UniProt P30542); assay: Inhibition of forskolin-stimulated cAMP accumulation: NECA potency ± compound and compound alone; format: cell-based; settings: for allosteric agonism (functional response in the absence of NECA): 30 μM compound alone, 3 μM forskolin-stimulated cAMP accumulation; for effect on NECA potency (pEC50): 30 μM compound, inhibition of forskolin-stimulated cAMP accumulation
T2 sequence (P30542 1-326): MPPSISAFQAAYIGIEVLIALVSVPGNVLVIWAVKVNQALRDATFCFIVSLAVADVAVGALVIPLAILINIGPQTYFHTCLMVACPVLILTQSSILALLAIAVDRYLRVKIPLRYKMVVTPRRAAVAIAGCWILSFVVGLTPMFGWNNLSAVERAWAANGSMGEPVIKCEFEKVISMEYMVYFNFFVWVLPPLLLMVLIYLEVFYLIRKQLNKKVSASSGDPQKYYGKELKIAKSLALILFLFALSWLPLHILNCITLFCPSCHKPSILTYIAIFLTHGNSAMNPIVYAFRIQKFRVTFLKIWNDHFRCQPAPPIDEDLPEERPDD
Experimental: (§1) FlpInCHO cell lines and cortical neuron cells were seeded into transparent 96-well plates at 20,000 cells/well and incubated for 16 to 20 h in a humidified incubator at 37 °C in 5% CO2. […] Compounds were added at either a single concentration (10 or 30 μM) or a concentration range for full interaction studies (3 to 30 μM), and plates were incubated for 30 to 60 min at 37 °C in a humidified chamber. […] After 30 min incubation at 37 °C, the reaction was terminated by rapid removal of buffer and the addition of 50 μL/well cold ethanol. […] Agonist concentration–response curves were normalized to the response mediated by 3 µM forskolin […].
Response=Basal+Emax-Basal×A/EC50+A,

A2AR = target: T3, A2AR (Homo sapiens, UniProt P29274); assay: cAMP accumulation in A2AR FlpINCHO cells (selectivity); format: cell-based
T3 construct: expressed in transfected cells; host or cells: FlpInCHO cells, stably transfected
T3 sequence (P29274 whole entry): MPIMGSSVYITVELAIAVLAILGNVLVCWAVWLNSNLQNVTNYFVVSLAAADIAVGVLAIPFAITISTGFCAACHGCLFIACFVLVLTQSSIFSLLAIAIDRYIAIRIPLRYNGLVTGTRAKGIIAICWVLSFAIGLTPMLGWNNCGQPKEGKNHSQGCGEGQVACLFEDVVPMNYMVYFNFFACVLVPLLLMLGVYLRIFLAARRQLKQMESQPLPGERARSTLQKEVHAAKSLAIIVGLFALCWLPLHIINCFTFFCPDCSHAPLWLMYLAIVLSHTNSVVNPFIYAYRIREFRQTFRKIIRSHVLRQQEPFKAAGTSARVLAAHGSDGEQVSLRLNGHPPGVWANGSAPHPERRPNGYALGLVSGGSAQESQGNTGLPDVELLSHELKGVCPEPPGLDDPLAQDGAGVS

A3R = target: T4, A3R (Homo sapiens, UniProt P0DMS8); assay: cAMP accumulation in A3R FlpINCHO cells (selectivity); format: cell-based
T4 construct: expressed in transfected cells; host or cells: FlpInCHO cells, stably transfected
T4 sequence (P0DMS8 1-318): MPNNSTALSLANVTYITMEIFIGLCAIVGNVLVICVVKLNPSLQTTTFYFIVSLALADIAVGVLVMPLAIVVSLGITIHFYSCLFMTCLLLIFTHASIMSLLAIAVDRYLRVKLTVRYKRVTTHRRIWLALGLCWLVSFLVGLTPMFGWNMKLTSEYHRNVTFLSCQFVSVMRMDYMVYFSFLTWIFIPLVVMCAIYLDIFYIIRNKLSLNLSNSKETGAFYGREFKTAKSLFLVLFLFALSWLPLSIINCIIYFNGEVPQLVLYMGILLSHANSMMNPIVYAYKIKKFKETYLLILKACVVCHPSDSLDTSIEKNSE

[2] = test system: nontransfected FlpINCHO cells; assay: cAMP accumulation in nontransfected FlpINCHO cells; format: cell-based, Chinese hamster; settings: 10 µM compound
A1R G279^7.44A mutant = target: T5, A1R G279^7.44A mutant (Homo sapiens, UniProt P30542, G279A); assay: [3H]DPCPX interaction binding at mutant G279A-A1R-FlpINCHO
T5 construct: expressed in transfected cells; host or cells: FlpInCHO cells, stably transfected
T5 sequence (P30542 1-326 G279A): T2 sequence (P30542 1-326) with G279A

A2BR = target: T6, A2BR (Homo sapiens, UniProt P29275); assay: cAMP accumulation in A2BR FlpINCHO cells (selectivity); format: cell-based
T6 construct: expressed in transfected cells; host or cells: FlpInCHO cells, stably transfected
T6 sequence (P29275 1-332): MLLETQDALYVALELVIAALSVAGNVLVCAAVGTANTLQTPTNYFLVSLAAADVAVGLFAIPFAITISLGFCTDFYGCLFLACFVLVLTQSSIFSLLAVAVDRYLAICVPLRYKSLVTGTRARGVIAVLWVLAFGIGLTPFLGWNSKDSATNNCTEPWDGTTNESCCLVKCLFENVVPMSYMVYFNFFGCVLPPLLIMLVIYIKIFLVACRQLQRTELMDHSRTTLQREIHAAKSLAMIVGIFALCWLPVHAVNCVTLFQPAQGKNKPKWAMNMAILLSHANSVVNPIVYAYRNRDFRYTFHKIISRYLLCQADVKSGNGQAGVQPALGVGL

A1R S246^6.47A mutant = target: T7, A1R S246^6.47A mutant (Homo sapiens, UniProt P30542, S246A); assay: [3H]DPCPX interaction binding at mutant S246A-A1R-FlpINCHO
T7 construct: expressed in transfected cells; host or cells: FlpInCHO cells, stably transfected
T7 sequence (P30542 1-326 S246A): T2 sequence (P30542 1-326) with S246A

[3] = target: T8, A1R allosteric site (A1R-FlpINCHO cells, wild type) (Homo sapiens, UniProt P30542); assay: Whole-cell [3H]DPCPX interaction binding with NECA, allosteric ternary complex model; settings: for binding cooperativity with NECA (logα): orthosteric agonist NECA
T8 sequence (P30542 1-326): T2 sequence (P30542 1-326)
Excerpt: Equilibrium binding interaction experiments were fitted to the following allosteric ternary complex model.[3] Y=BmaxA/A+KAKB/αAB+KB1+[I]/KI+[B]/KB+αII[B]/KIKB,
A cooperativity factor α > 1 describes positive cooperativity; a value 0 < α < 1 describes negative cooperativity, and a value of α = 1 describes neutral cooperativity.

A1R (A1R-FlpInCHO cells) [4] = target: T2, A1R (A1R-FlpInCHO cells); assay: NECA/allosteric ligand interaction in cAMP accumulation, operational model of allosterism; format: cell-based; settings: for allosteric ligand efficacy (logτB): allosteric agonism in cAMP; for functional cooperativity with NECA (logαβ): cAMP
Experimental: as §1
[5] E=EmτAAKB+αβ[B]+τB[B]KA^n/AKB+KAKB+[B]KA+α[A][B]^n+τAAKB+αβ[B]+τB[B]KA^n
Orthosteric agonist and allosteric ligand affinity were constrained to values determined from radioligand binding.

[5] = test system: A1R-mediated rat atrial beat rate; assay: Isolated rat atria: NECA-mediated decrease in contractile rate; settings: approximate, read-out: potency (EC50) for inhibition in rat atrial beat rate
Experimental: Isolated rat atrial experiments were performed as previously described ([53]). Briefly, 10 to 16 wk old male Sprague Dawley rats were anesthetized with xylazine/ketamine and the chest cavity of the rat was opened to fully expose the heart, which was rapidly removed and placed in Krebs–Henseleit solution. The heart was cut transversely below the right and left atria to remove the ventricles, and the remaining […] were trimmed carefully. Atria was then mounted in an organ bath at 37 °C, bubbled with 5% CO2/95% O2, and allowed to contract spontaneously. The rate of atrial contraction was measured using a force transducer connected to a PowerLab data acquisition system. […] All experiments involving animals were approved by the Monash Institute of Pharmaceutical Sciences Animal Ethics Committee under project number 20213.

A1R (A1R-FlpInCHO cells) [6] = target: T2, A1R (A1R-FlpInCHO cells); assay: Whole-cell [3H]DPCPX competition binding: NECA affinity in absence or presence of compound; settings: 30 μM compound; for effect on NECA affinity (pKI): [3H]DPCPX competition binding, A1R-FlpINCHO cells; for effect on [3H]DPCPX binding (1 nM): absence of orthosteric agonist
Experimental: [^3H]DPCPX (8-cyclopentyl-1,3-dipropylxanthine, [dipropyl-2,3-^3H(N)]) whole-cell binding assays were performed on FlpINCHO cells stably expressing either WT (nontagged or 3xHA-tagged) or mutant 3xHA-A1R. Cells were seeded into a transparent 96-well plate at 40,000 cells/well in DMEM containing 10% FBS. Following 8 h incubation in a humidified environment at 37 °C in 5% CO2, cells were washed and maintained in serum-free DMEM for approximately 18 h at 37 °C in 5% CO2. […] Assays were terminated by washing twice with 100 μL/well cold phosphate-buffered saline, followed by the addition of 100 μL OptiPhase Supermix™ scintillation cocktail and bound radioactivity measured using a MicroBeta^2 ™ plate counter (PerkinElmer).
[^3H]DPCPX competition binding curves were fitted to a one-site inhibitory mass action equation:[1] Y=Bottom+Top-Bottom/1+10^X-LogIC50,
The top and bottom represent the maximal and minimal binding in the presence of the competitive ligand, respectively. Equilibrium dissociation constant (KI) values were subsequently derived from inhibition binding experiments using the Cheng–Prusoff equation:[2] KI=IC50/1+A/KD.

[7] = allosteric ternary complex model

SMILES: CCCc1sc(N)nc1-c1ccc(C)c2ccccc12 [compound 54]
- effect in FlpINCHO cells expressing the M2 receptor (M2 receptor (M2R)): no significant effect
- agonism (compound alone) (A1R (A1R-FlpInCHO cells) [1]; A1R-FlpINCHO cells): modest functional response
- effect on NECA potency (A2AR; 10 µM compound, A2AR): no significant effect
- agonism (compound alone) (A2AR; 30 μM, A2AR FlpINCHO cells): no appreciable activity
- effect on NECA potency (A3R; 10 µM compound, A3R): no significant effect
- agonism (compound alone) (A3R; 30 μM, A3R FlpINCHO cells): no appreciable activity
- effect in nontransfected FlpINCHO cells [2]: no significant effect
- effect of G279^7.44A on affinity (A1R G279^7.44A mutant): did not influence
- effect of G279^7.44A on allosteric cooperativity with the orthosteric agonist (A1R G279^7.44A mutant): significantly decreased
- Kb (A1R G279^7.44A mutant; […], Table S2): 2.14 µM
- binding cooperativity (logα) with NECA (A1R G279^7.44A mutant; […], Table S2): -0.05
- effect on NECA potency (A2BR; 10 µM compound, A2BR): no significant effect
- agonism (compound alone) (A2BR; 30 μM, A2BR FlpINCHO cells): no appreciable activity
- effect of S246^6.47A on affinity or cooperativity (A1R S246^6.47A mutant): did not significantly decrease
- Kb (A1R S246^6.47A mutant; […], Table S2): 5.13 µM
- binding cooperativity (logα) with NECA (A1R S246^6.47A mutant; […], Table S2): 1.10
- binding cooperativity (logα) with NECA ([3]; WT A1R, Table S2): 0.92
- Kb ([3]; allosteric ligand affinity (pKB), allosteric ternary complex model, n = 4): 7.08 µM
- binding cooperativity with NECA (logα) [3, 7]: 1.15 ± 0.10
- Kb ([3]; pKB, WT A1R, mean ± SEM (n), Table S2): 5.62 µM
- allosteric ligand efficacy (logτB) (A1R (A1R-FlpInCHO cells) [4]): −0.37 ± 0.10
- functional cooperativity with NECA (logαβ) (A1R (A1R-FlpInCHO cells) [4]): 0.84 ± 015

SMILES: CCNC(=O)[C@H]1O[C@@H](n2cnc3c(N)ncnc32)[C@H](O)[C@@H]1O [NECA, 5′-N-ethylcarboxamidoadenosine]
- pEC50 [5]: ~6.89

SMILES: Nc1nc(-c2cccc3ccccc23)cs1 [compound 12]
- allosteric agonism (functional response in the absence of NECA) (A1R (A1R-FlpInCHO cells) [1]): no significant effect
- effect on NECA potency (pEC50) (A1R (A1R-FlpInCHO cells) [1]; A1R-FlpINCHO cells): significantly enhanced
- effect on NECA affinity (pKI) (A1R (A1R-FlpInCHO cells) [6]): significantly enhanced
- effect on [3H]DPCPX binding (1 nM) (A1R (A1R-FlpInCHO cells) [6]): modest but significant decrease
- Kb ([3]; allosteric ternary complex model, n = 4, read-out: allosteric ligand affinity (pKB) (converted)): 23.4 µM
- binding cooperativity with NECA (logα) [3, 7]: 0.99 ± 0.25
- positive cooperativity between PAM and NECA ([3]; approximate, from logα): ~10 fold
- pKd ([3]; approximate, from pKB, read-out: affinity for the A1R allosteric site): ~4.60
- allosteric ligand efficacy (logτB) (A1R (A1R-FlpInCHO cells) [4]): −0.65 ± 0.12
- functional cooperativity with NECA (logαβ) (A1R (A1R-FlpInCHO cells) [4]): 0.68 ± 0.10

SMILES: CCCc1sc(N)nc1-c1ccc(C)cc1C [compound 2]
- effect on NECA potency (pEC50) (A1R (A1R-FlpInCHO cells) [1]; A1R-FlpINCHO cells): significantly enhanced
- effect on NECA affinity (pKI) (A1R (A1R-FlpInCHO cells) [6]): significantly enhanced

SMILES: Nc1ccc(Cl)cc1C(=O)c1ccc(F)cc1 [compound 22]
- effect on NECA affinity (pKI) (A1R (A1R-FlpInCHO cells) [6]): significantly enhanced

SMILES: Cc1ccc(C(=O)c2c(N)sc(C)c2C)cc1 [compound 20]
- allosteric agonism (functional response in the absence of NECA) (A1R (A1R-FlpInCHO cells) [1]): no significant effect
- effect on NECA potency (pEC50) (A1R (A1R-FlpInCHO cells) [1]; A1R-FlpINCHO cells): significantly enhanced
- effect on NECA affinity (pKI) (A1R (A1R-FlpInCHO cells) [6]): significantly enhanced
- effect on [3H]DPCPX binding (1 nM) (A1R (A1R-FlpInCHO cells) [6]): modest but significant decrease
